Assay results reported in patent US20140249135A1, “PIM KINASE INHIBITORS AND METHODS OF THEIR USE” (NOVARTIS AG, priority 2007, published 2014).
Read-outs that look alike come from different tables or passages of the source.

Legend:
Assay type in all cases: biochemical
[1] = biological target: Pim2 kinase (Homo sapiens, UniProt Q9P1W9); assay: Pim2 ATP depletion assay;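 note: Luciferase-based luminescent readout of ATP remaining after PIM2 phosphorylates a BAD peptide, final 5 nM enzyme, 4 µM ATP, 10 µM peptide, 2.5% DMSO, run to roughly half ATP consumption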
[2] = biological target: Pim1 kinase (Homo sapiens, UniProt P11309); assay: Pim1 ATP depletion assay;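 note: Luciferase-luciferin luminescence readout of residual ATP after PIM1 transfers phosphate to a peptide substrate, 40 µM ATP added, reaction run to roughly half ATP consumption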
[3] = biological target: Pim3 kinase (Homo sapiens, UniProt Q86V86); assay: Pim3 ATP depletion assay
[4] = Pim1 ATP depletion assay, read-out: PIM1 IC50
[5] = Pim1 ATP depletion assay, read-out: IC50 (μM) PIM1

Pim2 kinase, sequence (Q9P1W9 whole entry): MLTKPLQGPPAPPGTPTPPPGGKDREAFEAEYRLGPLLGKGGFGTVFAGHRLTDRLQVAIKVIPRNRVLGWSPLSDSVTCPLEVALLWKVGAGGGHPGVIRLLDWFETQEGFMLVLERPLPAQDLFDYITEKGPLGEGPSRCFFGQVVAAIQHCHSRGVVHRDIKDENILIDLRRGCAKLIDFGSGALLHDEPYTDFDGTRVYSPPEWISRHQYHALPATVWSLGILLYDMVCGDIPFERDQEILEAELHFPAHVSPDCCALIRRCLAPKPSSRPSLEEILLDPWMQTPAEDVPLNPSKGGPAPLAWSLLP
Pim1 kinase, sequence (P11309 whole entry): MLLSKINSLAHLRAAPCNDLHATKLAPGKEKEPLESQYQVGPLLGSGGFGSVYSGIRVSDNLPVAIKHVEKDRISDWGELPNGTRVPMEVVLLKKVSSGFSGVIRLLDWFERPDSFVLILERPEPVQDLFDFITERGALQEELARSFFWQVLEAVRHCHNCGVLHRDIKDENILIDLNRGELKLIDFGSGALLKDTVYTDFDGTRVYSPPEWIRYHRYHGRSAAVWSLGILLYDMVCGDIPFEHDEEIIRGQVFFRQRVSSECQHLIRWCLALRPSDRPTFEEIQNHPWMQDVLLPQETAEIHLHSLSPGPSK

| IC50 ([1]; read-out: PIM2 IC50) | IC50 [2, 4] | IC50 ([3]; read-out: PIM3 IC50) | IC50 ([1]; read-out: IC50 (μM) PIM2) | IC50 [2, 5] | IC50 ([3]; read-out: IC50 (μM) PIM3) | IC50 [2] | Compound |
| --- | --- | --- | --- | --- | --- | --- | --- |
| < 1 µM | < 1 µM | < 1 µM | – | – | – | – | Cc1ccc(F)c(-c2nc(C(=O)Nc3cnccc3N3CCC[C@H](N)C3)c(N)cc2F)n1 [Example 745, 5-Amino-3,3′-difluoro-6′-methyl-[2,2′]bipyridinyl-6-carboxylic acid (3-amino-3,4,5,6-tetrahydro-2H-[1,4′]bi-pyridinyl-3′-yl)-amide] |
| < 1 µM | < 1 µM | < 1 µM | – | – | – | – | Nc1cnc(-c2ccc(N)c(C(=O)Nc3cnccc3N3CCC[C@H](N)C3)n2)cn1 [Example 729, 3-Amino-6-(5-amino-pyrazin-2-yl)-pyridine-2-carboxylic acid (3-amino-3,4,5,6-tetrahydro-2H-[1,4′]bipyridinyl-3′-yl)-amide] |
| – | – | – | > 25 µM | 1 to 10 µM | 10 to 25 µM | – | CS(=O)(=O)c1ccc(N2CCC(N)CC2)c(NC(=O)c2nccnc2N)c1 [Example 234, 3-amino-N-[2-(4-aminopiperidin-1-yl)-5-(methylsulfonyl)phenyl]-pyrazine-2-carboxamide] |
| < 1 µM | < 1 µM | < 1 µM | – | – | – | – | Nc1ccc(-c2ncccc2N)nc1C(=O)Nc1cnccc1N1CCC[C@H](N)C1 [Example 716, 5,3′-Diamino-[2,2′]bipyridinyl-6-carboxylic acid (3-amino-3,4,5,6-tetrahydro-2H-[1,4′]bi-pyridinyl-3′-yl)-amide] |
| – | – | – | < 1 µM | < 1 µM | < 1 µM | – | Nc1cc(-c2ccncc2NC(=O)c2nc(-c3ccccc3)ccc2N)nc(C(F)(F)F)n1 [Example 531, 3-Amino-6-phenyl-pyridine-2-carboxylic acid [4-(6-amino-2-trifluoromethyl-pyrimidin-4-yl)-pyridin-3-yl]-amide] |
| < 1 µM | < 1 µM | < 1 µM | – | – | – | – | CCCOc1cncc(-c2nc(C(=O)Nc3cnccc3N3CCC[C@H](N)C3)c(N)cc2F)n1 [Example 738, 3-Amino-5-fluoro-6-(6-propoxy-pyrazin-2-yl)-pyridine-2-carboxylic acid (3-amino-3,4,5,6-tetrahydro-2H-[1,4′]bi-pyridinyl-3′-yl)-amide] |
| – | – | – | 1 to 10 µM | < 1 µM | < 1 µM | – | Nc1ccc(-c2c(F)cccc2F)nc1C(=O)Nc1cnccc1N1CCCCCCC1 [Example 167, 3-Amino-6-(2,6-difluoro-phenyl)-pyridine-2-carboxylic acid (4-azocan-1-yl-pyridin-3-yl)-amide] |
| – | – | – | < 1 µM | < 1 µM | < 1 µM | – | Nc1ccc(-c2c(F)ccc(OCc3ccccc3Cl)c2F)nc1C(=O)Nc1cnccc1N1CCC[C@H](N)C1 [Example 464, 3-Amino-6-[3-(2-chloro-benzyloxy)-2,6-difluoro-phenyl]-pyridine-2-carboxylic acid (3-amino-3,4,5,6-tetrahydro-2H-[1,4′]bipyridinyl-3′-yl)-amide] |
| – | – | – | < 1 µM | < 1 µM | < 1 µM | – | Cc1nc(N)ncc1-c1ccc(N)c(C(=O)Nc2cnccc2N2CCC[C@H](N)C2)n1 [Example 409, 3-amino-6-(2-amino-4-methyl-pyrimidin-5-yl)-pyridine-2-carboxylic acid ((S)-3-amino-3,4,5,6-tetrahydro-2H-[1,4′]bi-pyridinyl-3′-yl)-amide] |
| < 1 µM | < 1 µM | < 1 µM | – | – | – | – | COc1nc(-c2ccc(N)c(C(=O)Nc3cnccc3N3CCC[C@H](N)C3)n2)cnc1N [Example 731, 3-Amino-6-(5-amino-6-methoxy-pyrazin-2-yl)-pyridine-2-carboxylic acid (3-amino-3,4,5,6-tetrahydro-2H-[1,4′]bi-pyridinyl-3′-yl)-amide] |
| < 1 µM | < 1 µM | < 1 µM | – | – | – | – | Nc1ccc(-c2ncccc2F)nc1C(=O)Nc1cnccc1N1CCC[C@H](O)C1 [Example 690, 5-Amino-3′-fluoro-[2,2′]bi-pyridinyl-6-carboxylic acid (3-hydroxy-3,4,5,6-tetrahydro-2H-[1,4′]bipyridinyl-3′-yl)-amide] |
| – | – | – | < 1 µM | < 1 µM | < 1 µM | – | CC1(O)CCCN(c2ccncc2NC(=O)c2nc(-c3ccccc3F)ccc2N)C1 (stereo not drawn) [Example 162, 3-Amino-6-(2-fluoro-phenyl)-pyridine-2-carboxylic acid (3-hydroxy-3-methyl-3,4,5,6-tetra-hydro-2H-[1,4′]bipyridinyl-3′-yl)-amide] |
| < 1 µM | < 1 µM | < 1 µM | – | – | – | – | NC(=O)c1ccc(-c2ccc(N)c(C(=O)Nc3cnccc3N3CCC[C@H](N)C3)n2)nc1 [Example 691, 5′-Amino[2,2′]bipyridinyl-5,6′-dicarboxylic acid 5-amide 6′-[(3-amino-3,4,5,6-tetrahydro-2H-[1,4′]bipyridinyl-3′-yl)-amide]] |
| < 1 µM | < 1 µM | < 1 µM | – | – | – | – | Nc1ccc(-c2ccccc2)nc1C(=O)Nc1cnccc1N1C[C@@H](N)C[C@@H](F)C1 [Example 578, 3-Amino-6-phenyl-pyridine-2-carboxylic acid (3-amino-5-fluoro-3,4,5,6-tetrahydro-2H-[1,4′]bipyridinyl-3′-yl)-amide] |
| – | – | – | < 1 µM | < 1 µM | < 1 µM | – | Nc1ccc(-c2ccc(Cl)cc2F)nc1C(=O)Nc1cnccc1N1CCC[C@H](N)C1 [Example 420, 3-amino-6-(4-chloro-2-fluoro-phenyl)-pyridine-2-carboxylic acid ((S)-3-amino-3,4,5,6-tetra-hydro-2H-[1,4′]bipyridinyl-3′-yl)-amide] |
| < 1 µM | – | < 1 µM | – | – | – | < 1 µM | Nc1ccc(-c2c(F)cccc2F)nc1C(=O)Nc1cnccc1N1CC[C@H](O)[C@@H](N)C1 [Example 680, 3-Amino-6-(2,6-difluoro-phenyl)-pyridine-2-carboxylic acid (3-amino-4-hydroxy-3,4,5,6-tetrahydro-2H-[1,4′]bi-pyridinyl-3′-yl)-amide] |
| < 1 µM | < 1 µM | < 1 µM | – | – | – | – | COc1cncc(-c2ccc(N)c(C(=O)Nc3cnccc3N3CCC[C@H](N)C3)n2)n1 [Example 722, 3-Amino-6-(6-methoxy-pyrazin-2-yl)-pyridine-2-carboxylic acid (3-amino-3,4,5,6-tetrahydro-2H-[1,4′]bipyridinyl-3′-yl)-amide] |
| – | – | – | < 1 µM | < 1 µM | < 1 µM | – | Nc1cc(-c2ccncc2NC(=O)c2nc(C3=CCNCC3)ccc2N)nc(C(F)(F)F)n1 [Example 526, 5-Amino-1′,2′,3′,6′-tetrahydro-[2,4′]bipyridinyl-6-carboxylic acid [4-(6-amino-2-trifluoromethyl-pyrimidin-4-yl)-byridin-3-yl]-amide] |
| – | – | – | < 1 µM | < 1 µM | < 1 µM | – | Cc1ccccc1-c1ccc(N)c(C(=O)Nc2cnccc2N2CCC[C@H](N)C2)n1 [Example 338, 3-amino-6-o-tolyl-pyridine-2-carboxylic acid ((S)-3-amino-3,4,5,6-tetrahydro-2H-[1,4′]bi-pyridinyl-3′-yl)-amide] |

| Compound | IC50 ([1]; read-out: PIM2 IC50) | IC50 [2, 4] | IC50 ([3]; read-out: PIM3 IC50) | IC50 ([1]; read-out: IC50 (μM) PIM2) | IC50 [2, 5] | IC50 ([3]; read-out: IC50 (μM) PIM3) | IC50 [2] |
| --- | --- | --- | --- | --- | --- | --- | --- |
| CC(C)COc1cncc(-c2nc(C(=O)Nc3cnccc3N3CCC[C@H](N)C3)c(N)cc2F)n1 [Example 741, 3Amino-5-fluoro-6-(6-isobutoxy-pyrazin-2-yl)-pyridine-2-carboxylic acid (3-amino-3,4,5,6-tetrahydro-2H-[1,4′]bipyridinyl-3′-yl)-amide] | < 1 µM | < 1 µM | < 1 µM | – | – | – | – |
